{
  "source": "patent US12168781B2",
  "about": "“Production method for T cells or NK cells, medium for culturing T cells or NK cells, method for culturing T cells or NK cells, method for maintaining undifferentiated state of undifferentiated T cells, and growth-accelerating agent for T cells or NK cells” (KIRIN HOLDINGS KABUSHIKI KAISHA, priority 2018, dated 2024)",
  "key": {"[1]": {"system": "CD8 T cells", "assay": "Engraftment into mice of CD8 T cells cultured with the compound", "type": "in vivo", "settings": "cells cultured 10 days with 1 μM, two weeks after transplantation into NSG mice, FIG. 19(B)", "description": "The effect of cells cultured with berbamine on engraftment into mice was examined. As a method therefor, CD8 T cells were purified from PBMCs (CTL, Inc.) derived from a healthy subject using CD8 T Cell Isolation Kit, human (Miltenyi, 130-096-495). The purified CD8 T cells (20,000 cells/well) were seeded, and berbamine (BBM) at 1 μM or MilliQ water that is a solvent for the compound as a control was added thereto, and the cells were cultured in the same culture medium by the same stimulation method as in additional Example 6, and the cells cultured for 10 days were used as cells to be transplanted. NSG male mice at 6 to 11 weeks of age (Charles River Japan) were used as experimental animals and transplantation was performed through the tail vein (approximately 4×10^6 cells). Two weeks after the transplantation, the spleen, peripheral blood and bone marrow were collected, and the CD8β and CD45 positive rates were analyzed by FACS. In the FACS, after the spleen and bone marrow were subjected to a homogenization treatment, and the peripheral blood was subjected to a hemolysis treatment, the resulting materials were transferred to a 96-well plate, followed by washing with a staining solution (PBS containing 2% FBS), and then staining with CD8β-PE-cy7 (eBioscience, 25-5273-42) and CD45-APC-Cy7 (BioLegend, 304014). After washing, the cells were resuspended in the staining solution containing PI. An analysis was performed using a BD LSR Fortessa cytometer (BD Bioscience). The positive rate of CD8β(+)CD45(+) cells in the PI-negative cell population analyzed by FlowJo 9 was measured. Note that in a statistical analysis, a Student's t-test was used (*: p<0.05)."}, "[2]": {"system": "T-iPS-T cells", "assay": "Long-term culturing of T-iPS-T cells obtained by differentiation induction using a feeder, trypan blue count", "type": "cell-based, human", "settings": "1 μM, FIG. 15(B)", "description": "Further, evaluation of T-iPS-T cells obtained by differentiation induction using a feeder was also performed. The T-iPS-T cells (1,500 cells/well) obtained by differentiation induction in Example 1 were seeded, and stimulated with CD3/CD28 Dynabeads in the same manner as in Example 4, and berbamine (BBM) at 1 μM or MilliQ water that is a solvent for the compound as a control was added thereto, and the cells were cultured in the same culture medium as in Example 6. The cells were collected on day 14, day 28, and day 42, and the number of viable cells was counted by a trypan blue method, and the cells were restimulated and cultured. The cells were collected on day 56, and the number of viable cells was counted."}, "[3]": {"system": "primary T cells (CD4 T, CD8 T cells)", "assay": "Proliferation of primary T cells purified from PBMCs", "type": "cell-based, human", "settings": "1 μM, 6 days, restimulated, further 4 days, FIG. 16", "description": "The effect of berbamine on proliferation of primary T cells (CD4 T, CD8 T cells) was examined. As a method therefor, CD3 T cells were purified from PBMCs (CTL, Inc.) using Pan T Cell Isolation Kit, human (Miltenyi, 130-096-535). The purified CD3 T cells (20,000 cells/well) were seeded, and berbamine (BBM) at 1 μM or MilliQ water that is a solvent for the compound as a control was added thereto, and the cells were stimulated with CD3/CD28 Dynabeads (60,000 beads/well).\nThe cells were cultured for 6 days in the same culture medium as in Example 6 and restimulated. After the cells were further cultured for 4 days, the number of viable cells was counted by a trypan blue method and the ratios of CD4-positive cells and CD8-positive cells were analyzed by FACS. […]\nAfter washing, the cells were resuspended in 200 μL/well of the staining solution containing PI. The suspension in an amount of 100 μL/well was analyzed using a BD LSR Fortessa cytometer (BD Bioscience) equipped with HTS, and all cells were recorded.\nThe value obtained by multiplying the positive rate of CD8(+) or CD4(+) cells in the PI-negative cell population analyzed by FlowJo 9 by the number of viable cells was defined as the number of CD8-positive cells or the number of CD4-positive cells. […]"}},
  "data": [
    {"compound": "COc1cc2c3cc1Oc1c(OC)c(OC)cc4c1[C@@H](Cc1ccc(O)c(c1)Oc1ccc(cc1)C[C@@H]3N(C)CC2)N(C)CC4", "note": "[berbamine]", "values": [
      {"measurement": "positive rate of CD8β(+)CD45(+) cells (engraftment) compared with cells cultured with MilliQ water", "setting": "[1]; bone marrow", "value": "significant engraftment"},
      {"measurement": "positive rate of CD8β(+)CD45(+) cells (engraftment) compared with cells cultured with MilliQ water", "setting": "[1]; peripheral blood", "value": "significant engraftment"},
      {"measurement": "positive rate of CD8β(+)CD45(+) cells (engraftment) compared with cells cultured with MilliQ water", "setting": "[1]; spleen", "value": "significant engraftment"},
      {"measurement": "period for which the cells could be cultured", "setting": "[2]; restimulated on day 14, 28, 42, MilliQ water control could not be cultured after day 28", "value": 56, "unit": "days"},
      {"measurement": "proliferation of the cells in long-term culturing", "setting": "[2]; vs MilliQ water", "value": "enhancement of the proliferation of the cells"},
      {"measurement": "number of CD4-positive cells compared with MilliQ water", "setting": "[3]", "value": "significant enhancement of cell proliferation"},
      {"measurement": "number of CD8-positive cells compared with MilliQ water", "setting": "[3]", "value": "significant enhancement of cell proliferation"}
    ]}
  ]
}
